Measurements taken from PMC4198181, “Gold(I) Complexes of 9-Deazahypoxanthine as Selective Antitumor and Anti-Inflammatory Agents” (PLoS ONE, 2014).

Test system: polymorphonuclear cells infiltration in hind paw tissue
Experiment: Ex vivo histological evaluation of hind paw tissue (HE staining, PMN infiltration)
Type: in vivo, Wistar-SPF rats
Conditions: 6 h after carrageenan, Indomethacin 5 mg/kg
Procedure: The carrageenan-induced hind paw edema model was used for the determination of anti-inflammatory activity. Animals were i.p. pretreated with complexes 2, 4, and 5 (the dosages of the individual complexes were adjusted to contain the same amount of gold as in 10 mg/kg dose of Auranofin), Indomethacin (5 mg/kg), or 25% DMSO (v/v in water) 30 min prior to the injection of 1% λ-carrageenan solution (50 µL) into the plantar side of right hind paws of the rats. The paw volume was measured immediately after the carrageenan injection (this value was set-up as baseline value for the hind paw volume) and during the next 6 h after the administration of the edematogenic agent using a plethysmometer (model 7159, Ugo Basile, Varese, Italy). The degree of swelling was evaluated as a percentage of the change of the volume of the right hind paw after the carrageenan treatment from the baseline volume. A non-steroidal anti-inflammatory drug Indomethacin was used as a positive control and the obtained data were also compared with the previously reported profile of antiedematous activity for Auranofin [38]. After 6 h, the animals were sacrificed and the edematous feet were dissected, the tissue from the plantar parts was extracted, fixed and stained by a standard hematoxylin/eosin (HE) staining for cytological evaluation of polymorphonuclear cells infiltration.
To assess the tissue consequences connected with the reduction of inflammation caused by the tested compounds after the intraplantar injection of carrageenan, the histopathological observations were made on the tissue sections obtained from the laboratory animals after the plethysmometric experiments were finished. All animals were sacrificed by cervical dislocation, and immediately after that, the tissue samples were taken from the plantar area of hind paws. The histopathological changes in tissues, stained by the standard HE staining (see Figure 10), were evaluated by the presence of the inflammation infiltrate, which contained mainly neutrophils (polymorphonuclear cells - PMN).

Question: For `COc1ccc2c(c1)c(CC(=O)O)c(C)n2C(=O)c1ccc(Cl)cc1` [Indomethacin, reference compound], which “PMN (neutrophil) infiltrate in hind paw tissue sections” value is on record?
Answer: The value was “mainly scarce and diffuse”.
